Experimental data from patent US8841288B2, “Quinolin-4 (1H)-one derivatives as inhibitors of phosphatidylinositol 3-kinases” (Universtà Degli Studi di Torino, priority 2010, dated 2014).

Each compound was assayed against p110α (Homo sapiens (Human), UniProt P42336) (assay: PI3K lipid kinase activity on lipid micelles (ADP-Glo), p110α). Details: 10 μM ATP.
Format: biochemical
Protocol: a) Some compounds of formula (I) described herein were assayed in vitro for their ability to inhibit the lipid kinase activity of PI3Ks, by using a non-radioactive method.
In details, His and GST-tagged recombinant proteins (purchased from JenaBioscience—Germany; PI3Kα #PR-335, PI3Kβ #PR-344, PI3Kγ #PR-343, PI3Kδ #PR-345) for each isoform PI3Kα, β, γ and δ, were incubated with 10 μM of ATP, with lipid micells containg the appropriate substrate phosphatidylinositol and the phosphatidilserine, and different concentrations of the formula (I) compounds.
After 30 minutes of incubation at room temperature, the amount of ADP produced from ATP following the activation of kinase was measured with a luminescent kinase assay, ADP-Glo™ Kinase Assay (purchased from Promega—USA #V9101).
The luminescent signal positively correlates with the formed ADP and, therefore, with the kinase activity.
Inhibition of PI3K lipid kinase activity is achieved when the amount of ADP—that is correlated with the PI3K activity—in the presence of the assayed compound of formula (I) is lower than the amount detected in the control samples.
For each assayed formula (I) compound, a specific IC50 for each class I PI3K isoform was measured.
The IC50 of a formula (I) compound is the concentration of the compound able to inhibit by 50% the kinase activity of each PI3K isoform.
The IC50 was determined by constructing a dose-response curve and examining the inhibitory effect of different concentrations of the assayed formula (I) compounds on the ADP production.
To evaluate the ability of each compound of formula (I) to inhibit the lipid kinase activity of each PI3K isoform, PI3Kα, β, γ and δ recombinant proteins (30 ng for each assay) were incubated for about 30 minutes with different concentrations of compounds.
Lipid micelles were formed by sonicating a mixture of 1 mg of phosphatidylinositol and 1 mg of phosphatidylserine. Lipid micelles were use as substrate for the PI3K lipid kinase activity. The reaction was started by adding 10 μM of ATP and 10 μM of micelles to each reaction.
After 30 minutes of incubation at room temperature, the reaction was stopped and the amount of ADP produced was measured by using the ADP-glo assay (see above).

Sequence of p110α (P42336 whole entry): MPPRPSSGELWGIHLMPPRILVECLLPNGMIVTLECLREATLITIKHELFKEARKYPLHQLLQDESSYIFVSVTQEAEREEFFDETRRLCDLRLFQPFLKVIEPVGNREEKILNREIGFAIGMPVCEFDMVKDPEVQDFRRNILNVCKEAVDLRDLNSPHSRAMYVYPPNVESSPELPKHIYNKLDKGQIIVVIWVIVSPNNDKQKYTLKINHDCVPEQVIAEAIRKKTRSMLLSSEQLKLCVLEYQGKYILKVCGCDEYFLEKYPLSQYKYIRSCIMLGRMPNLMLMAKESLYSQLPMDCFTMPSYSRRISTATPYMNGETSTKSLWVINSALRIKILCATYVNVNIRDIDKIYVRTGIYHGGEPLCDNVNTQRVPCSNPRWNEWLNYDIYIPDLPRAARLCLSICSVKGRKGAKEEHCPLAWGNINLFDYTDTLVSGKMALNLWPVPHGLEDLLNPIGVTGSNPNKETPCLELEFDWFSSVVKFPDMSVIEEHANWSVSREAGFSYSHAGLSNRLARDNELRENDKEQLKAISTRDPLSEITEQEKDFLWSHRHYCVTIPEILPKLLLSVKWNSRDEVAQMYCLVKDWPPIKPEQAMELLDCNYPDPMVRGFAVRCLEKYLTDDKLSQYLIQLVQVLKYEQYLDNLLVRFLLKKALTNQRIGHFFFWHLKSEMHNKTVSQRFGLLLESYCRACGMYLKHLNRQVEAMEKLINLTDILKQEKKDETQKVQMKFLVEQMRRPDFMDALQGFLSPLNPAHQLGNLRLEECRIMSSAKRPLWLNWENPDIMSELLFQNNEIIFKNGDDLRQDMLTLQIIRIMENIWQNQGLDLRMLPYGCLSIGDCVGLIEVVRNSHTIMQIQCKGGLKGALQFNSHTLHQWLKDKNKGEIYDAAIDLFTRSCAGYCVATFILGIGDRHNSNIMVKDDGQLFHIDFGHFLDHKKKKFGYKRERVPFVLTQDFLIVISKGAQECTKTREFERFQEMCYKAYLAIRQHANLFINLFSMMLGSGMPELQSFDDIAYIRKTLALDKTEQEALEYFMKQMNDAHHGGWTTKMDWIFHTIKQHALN
Sequence of p110α (P27986 whole entry partner): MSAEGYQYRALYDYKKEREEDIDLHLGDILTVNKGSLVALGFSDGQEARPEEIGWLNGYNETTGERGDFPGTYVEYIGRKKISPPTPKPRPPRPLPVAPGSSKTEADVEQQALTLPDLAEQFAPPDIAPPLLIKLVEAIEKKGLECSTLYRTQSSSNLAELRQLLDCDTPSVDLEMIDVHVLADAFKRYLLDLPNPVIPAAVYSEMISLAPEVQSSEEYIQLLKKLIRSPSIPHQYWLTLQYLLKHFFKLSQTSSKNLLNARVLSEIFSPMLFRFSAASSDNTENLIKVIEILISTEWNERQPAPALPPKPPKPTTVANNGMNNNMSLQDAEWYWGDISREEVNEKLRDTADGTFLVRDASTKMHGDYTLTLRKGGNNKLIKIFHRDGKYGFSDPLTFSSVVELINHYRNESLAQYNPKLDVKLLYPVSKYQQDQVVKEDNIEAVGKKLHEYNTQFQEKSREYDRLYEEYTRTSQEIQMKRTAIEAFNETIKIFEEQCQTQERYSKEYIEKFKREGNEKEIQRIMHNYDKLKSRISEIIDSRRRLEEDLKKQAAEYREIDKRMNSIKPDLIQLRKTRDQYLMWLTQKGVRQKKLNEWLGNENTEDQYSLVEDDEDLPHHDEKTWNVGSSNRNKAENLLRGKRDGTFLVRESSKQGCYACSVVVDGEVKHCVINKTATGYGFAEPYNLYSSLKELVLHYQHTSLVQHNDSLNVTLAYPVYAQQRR

SMILES | IC50 [µM]
O=c1cc(N2CCOCC2)[nH]c2c(-c3cn(-c4ccccc4)nn3)cccc12 [CL1, 2-morpholino-8-(1-phenyl-1h-1,2,3-triazol-4-yl)quinolin-4(1H)-one] | 0.73
O=c1cc(N2CCOCC2)[nH]c2c(-c3cn(Cc4ccccc4)nn3)cccc12 [CL5, 8-(1-benzyl-1H-1,2,3-triazol-4-yl)-2-morpholinoquinolin-4(1H)-one] | 0.26
O=C(O)c1ccc(-n2cc(-c3cccc4c(=O)cc(N5CCOCC5)[nH]c34)nn2)cc1 [CL29a, 4-(4-(2-morpholino-4-oxo-1,4-dihydroquinolin-8-yl)-1H-1,2,3-triazol-1-yl)benzoic acid] | 0.32
O=C(O)CCCCn1cc(-c2cccc3c(=O)cc(N4CCOCC4)[nH]c23)nn1 [CL64a, 5-(4-(2-morpholino-4-oxo-1,4-dihydroquinolin-8-yl)-1H-1,2,3-triazol-1-yl)pentanoic acid] | 0.1
O=C(NCc1ccccc1)c1cccc(Cn2cc(-c3cccc4c(=O)cc(N5CCOCC5)[nH]c34)nn2)c1 [CL129a, N-benzyl-3-((4-(2-morpholino-4-oxo-1,4-dihydroquinolin-8-yl)-1H-1,2,3-triazol-1-yl)methyl) benzamide] | 0.14
Cc1cc(F)ccc1Oc1cccc2c(=O)cc(N3CCOCC3)[nH]c12 [TGX155, reference compound] | > 20
O=c1cc(N2CCOCC2)[nH]c2c(-c3cn(-c4ccccc4O)nn3)cccc12 [TP714, 8-(1-(2-hydroxyphenyl)-1H-1,2,3-triazol-4-yl)-2-morpholinoquinolin-4(1H)-one] | 0.26

Next, values leading:

IC50 [µM] | SMILES
0.1 | N#CCc1ccc(-n2cc(-c3cccc4c(=O)cc(N5CCOCC5)[nH]c34)nn2)cc1 [CL12, 2-(4-(4-(2-morpholino-4-oxo-1,4-dihydroquinolin-8-yl)-1H-1,2,3-triazol-1-yl)phenyl) acetonitrile]
0.02 | O=C(O)c1cccc(Cn2cc(-c3cccc4c(=O)cc(N5CCOCC5)[nH]c34)nn2)c1 [CL27e, 3-((4-(2-morpholino-4-oxo-1,4-dihydroquinolin-8-yl)-1H-1,2,3-triazol-1-yl)methyl)benzoic acid]
0.1 | O=C(O)CCCn1cc(-c2cccc3c(=O)cc(N4CCOCC4)[nH]c23)nn1 [CL55a, 4-(4-(2-morpholino-4-oxo-1,4-dihydroquinolin-8-yl)-1H-1,2,3-triazol-1-yl)butanoic acid]
0.1 | O=C(O)c1cccc(-n2cc(-c3cccc4c(=O)cc(N5CCOCC5)[nH]c34)nn2)c1 [CL55b, 3-(4-(2-morpholino-4-oxo-1,4-dihydroquinolin-8-yl)-1H-1,2,3-triazol-1-yl)benzoic acid]
